Measured values: patent US9657081B2, “Inhibiting peptides derived from triggering receptor expressed on myeloid cells-1 (TREM-1) TREM-like transcript 1 (TLT-1) for treatment of cardiovascular diseases” (INSERM (Institut National de la Sante et de la Recherche …, priority 2013, dated 2017)

What was measured:
Format in all cases: in vivo
TREM-1 [1] = experiment: Rat model of sepsis-induced cardiac dysfunction, intrinsic cardiac function by Millar catheter; set-up: dpdtmax/Ved / PRSW: unit not given beside the values; FEVG / ESPVR: unit not given here
From the text: TREM-1- and TLT-1-derived peptides administration during rat model of sepsis-induced cardiac dysfunction is associated with an increase of intrinsic cardiac function measured by Millar catheter (FEVG, ESPVR, dpdtmax/Ved, PRSW).
(§1) Rats were anaesthetized with isoflurane and a 2 F high-fidelity micro-manometer catheter (SPR-407, Millar Institute, Houston, Tex., USA) was inserted into the LV via the right carotid artery. The Millar catheter was connected to a Harvard Data Acquisition System interfaced with a PC with the AcqKnowledge III software (ACQ 3.2).

TREM-1 [2] = experiment: Rat model of myocardial ischemia-reperfusion, cardiac function by conductance catheter; set-up: PRSW: unit not given beside the values; Emax / ESPVR: unit not given here; settings: six weeks after ischemia-reperfusion; 3 mg/kg once a day for 5 days
Description: Adult male Wistar rats were subjected to myocardial ischemia-reperfusion and were randomly grouped (n=10) to receive repeated TREM-1- and TLT-1-derived peptides (3 mg/kg in 0.2 mL NaCl 0.9% once a day for 5 days) or scrambled-LR12 (3 mg/kg in 0.2 mL NaCl 0.9% once a day for 5 days). Six weeks after myocardial injury, cardiac function was investigated under anaesthesia by using a conductance catheter. Emax, ESPVR, and PRSW were higher in animals treated with TREM-1- and TLT-1-derived peptides than in control rats. All p<0.02 [controls versus LR12]).
Animals received same surgery than in permanent ischemia, but with reperfusion of ischemic area by release of the LAD ligation after 60 minutes of ischemia. The same protocol as described above was then applied.
as §1
To investigate the role of TREM-1- and TLT-1-derived peptides in a more relevant model of MI, we performed a transient coronary artery ligation (ischemia-reperfusion model: IR) in rats. After randomisation, animals were then imaged under anaesthesia (micro-TEP) and administered with TREM-1- and TLT-1-derived peptides (3 mg/kg daily for 5 days i.p.) or LR12-scrambled peptide. Imaging was then repeated at 6 weeks before we studied cardiac function by using a conductance catheter (Millar).

TREM-1 [3] = target: T1, TREM-1 (Mus musculus, UniProt Q9JKE2); experiment: Mouse model of myocardial infarction, survival; settings: 100 μg daily for 5 days i.p.
T1 construct: endogenous in cells; host or cells: living mice (C57BL, Balb/c, ApoE-/-), in vivo
T1 sequence (Q9JKE2 21-230): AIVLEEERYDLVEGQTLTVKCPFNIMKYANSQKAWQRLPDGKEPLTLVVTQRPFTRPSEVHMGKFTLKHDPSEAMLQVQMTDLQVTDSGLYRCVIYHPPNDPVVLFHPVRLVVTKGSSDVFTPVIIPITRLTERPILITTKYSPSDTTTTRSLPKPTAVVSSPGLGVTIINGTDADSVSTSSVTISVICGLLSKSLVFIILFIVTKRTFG
Description: Adult male Balb/c mice (20-23 g) were subjected to myocardial ischemia and were randomly grouped (n=10-15 per group) to receive repeated TREM-1- and TLT-1-derived peptides (100 μg in 0.2 mL NaCl 0.9% once a day for 5 days), scrambled-LR12 (100 μg in 0.2 mL NaCl 0.9% once a day for 5 days), or 10 μg anti-TREM-1 mAb in 0.2 mL NaCl 0.9% i.p. injections. Survival was monitored over 1 wk and analyzed by Log Rank test. (There were no deaths after the 5th day). Data are representative of at least 15 different experiments.
All procedures were performed on mice male C57BL/C ranging in age from 6-8 weeks. Mice were anesthetized by an intraperitoneal injection of xylazine (60 mg/kg) and fixed in supine position. The trachea was intubated and ventilated (the tidal volume was 200 μl/25 g and the respiratory rate was 120 breaths/min). After a left thoracotomy, the left coronary artery was identified and ligated with an 8-0 prolene surgical suture at 1.0 mm distal from tip of the left auricle. LAD occlusion was confirmed by a change in myocardial color from red to white in the ischemia area (Left ventricle). The chest was closed and the skin was sutured with 6-0 silk. […]
Mice were monitored after surgery for mortality. Mice were randomized to receive or not peptides (daily ip injection for 5 days, 5 mg/kg) and monitored for survival. […]

## EDAGEY (listed as Homo sapiens) [TLT1-LR6-2]
TREM-1 [1]
  ESPVR: 2.3 ± 0.2
  FEVG: 75 ± 5.9
  PRSW: 139 ± 10
  dpdtmax/Ved: 155 ± 12
TREM-1 [2]
  ESPVR: 1.8 ± 0.1
  Emax: 6.5 ± 0.9
  PRSW: 99 ± 8

## LQEEDA (listed as Homo sapiens) [TLT1-LR6-1]
TREM-1 [1]
  ESPVR: 2.9 ± 0.3
  FEVG: 79.6 ± 7.4
  PRSW: 142 ± 8
  dpdtmax/Ved: 160 ± 15
TREM-1 [2]
  ESPVR: 2.4 ± 0.4
  Emax: 4.5 ± 0.6
  PRSW: 102 ± 6

## LQVEDS (listed as Homo sapiens) [TREM1-LP6-1]
TREM-1 [1]
  ESPVR: 2.5 ± 0.3
  FEVG: 76 ± 5.9
  PRSW: 145 ± 6
  dpdtmax/Ved: 150 ± 20
TREM-1 [2]
  ESPVR: 2 ± 0.3
  Emax: 5.5 ± 0.4
  PRSW: 105 ± 6

## LQVEDSGLYQCVIYQPP (listed as Homo sapiens) [TREM1-LP17]
TREM-1 [1]
  ESPVR: 2.7 ± 0.3
  FEVG: 75.9 ± 8.9
  PRSW: 150 + 8
  dpdtmax/Ved: 156 ± 11
TREM-1 [2]
  ESPVR: 2.2 ± 0.3
  Emax: 5.9 ± 0.8
  PRSW: 110 ± 5

## ELMEGGQECADY (synthetic peptide scramble) [TLT-1-LR12scr, reference compound]
TREM-1 [1]
  ESPVR: 1.6 ± 0.3
  FEVG: 39.9 ± 4.9
  PRSW: 88 ± 8
  dpdtmax/Ved: 61 ± 12
TREM-1 [2]
  ESPVR: 1.1 ± 0.3
  Emax: 2.7 ± 0.3
  PRSW: 65 ± 8
TREM-1 [3]
  mice died: 40%

## LQEEDAGEYGCMVDGAR (listed as Homo sapiens) [TLT1-LR17]
TREM-1 [1]
  ESPVR: 2.5 ± 0.3
  FEVG: 75.6 ± 7.2
  PRSW: 145 ± 6
  dpdtmax/Ved: 150 ± 12
TREM-1 [2]
  ESPVR: 2 ± 0.2
  Emax: 5.1 ± 0.6
  PRSW: 105 ± 6

## LQVEDSGLYQCV (listed as Homo sapiens) [TREM1-LP12]
TREM-1 [1]
  ESPVR: 2.8 ± 0.2
  FEVG: 72 ± 9.4
  PRSW: 139 ± 6
  dpdtmax/Ved: 158 ± 18
TREM-1 [2]
  ESPVR: 2.3 ± 0.4
  Emax: 4.5 ± 0.4
  PRSW: 99 ± 4

## GLYQCV (listed as Homo sapiens) [TREM1-LP6-3]
TREM-1 [1]
  ESPVR: 2.9 ± 0.4
  FEVG: 78.6 ± 7.4
  PRSW: 139 ± 8
  dpdtmax/Ved: 163 ± 10
TREM-1 [2]
  ESPVR: 2.3 ± 0.4
  Emax: 5.8 ± 0.5
  PRSW: 99 ± 8

## EDSGLY (listed as Homo sapiens) [TREM1-LP6-2]
TREM-1 [1]
  ESPVR: 2.7 ± 0.1
  FEVG: 79.4 ± 9.9
  PRSW: 144 ± 6
  dpdtmax/Ved: 155 ± 15
TREM-1 [2]
  ESPVR: 2.2 ± 0.1
  Emax: 6 ± 0.6
  PRSW: 104 ± 5

## GEYGCM (listed as Homo sapiens) [TLT-1LR6-3]
TREM-1 [1]
  ESPVR: 2.2 ± 0.2
  FEVG: 78 ± 8.7
  PRSW: 149 ± 6
  dpdtmax/Ved: 157 ± 10
TREM-1 [2]
  ESPVR: 1.7 ± 0.3
  Emax: 5.2 ± 0.4
  PRSW: 109 ± 6
